Laboratory results: PMC12040169 (PLOS Biology, 2025)

Assay: in vitro
Conditions: human, hela cells, % viability

| SMILES | viability at 28.5 h, 10 µM [%] |
| --- | --- |
| Cc1ccc(-c2nnc3c4ccccc4c(C)nn23)cc1S(=O)(=O)NC(C)c1ccccc1 (stereo not drawn) [CBK266715] | 94.5 |
| CCCC/C=C/c1cnc2[nH]c(=O)n(C3CCOCC3)c2n1 [CBK064253] | 98.1 |
| CN1CCN(c2nc(NS(=O)(=O)c3ccc(OC(F)(F)F)cc3)cc3ccccc23)CC1 [CBK002978C] | 87.7 |
| Cn1c(=O)n(C)c2cc(CNC(=O)C3NCCc4[nH]cnc43)ccc21 (stereo not drawn) [CBK307274] | 89.2 |
| O=C(c1ccc(OC(F)F)cc1)N1CCCCC1 [CBK074223] | 86.7 |
| CC(=O)CSc1nsc(SCC(C)=O)n1 [CBK006702] | 89.6 |
| CCNC(=O)N1CC2(CCN(CC(=O)c3ccsc3)CC2)c2ccccc21 [CBK144601T] | 88.6 |
| COc1cc(-c2cn3ccnc3c(NC3CC3)n2)cc(OC)c1OC [CBK066184] | 90 |
| O=C(c1ccccc1F)N1CCN(C(=O)[C@@H]2C[C@@H]3C=C[C@H]2C3)CC1 [CBK282011] | 89.1 |
| O=C(OCc1ccccc1)N1CCC(C2OCc3ccc(-c4ccc(Cl)c(Cl)c4)cc3O2)CC1 (stereo not drawn) [CBK144646] | 109 |
| COCc1ccc(C(=O)N2CCC(c3cc4cnccc4[nH]3)CC2)cc1 [CBK283448] | 99.3 |
| Cc1nc2c(c(=O)[nH]1)CN(Cc1c(C)oc3ccccc13)CC2 [CBK283984] | 94.8 |
| COc1ccc(-c2n[nH]cc2/C=N/NC(=O)c2cc(Br)ccc2O)c(OC)c1 [CBK262067] | 85.9 |
| O=C(Nc1cccc(C(=O)O)c1)Nc1cccc(-c2ccccc2)c1 [CBK155451G] | 93.5 |
| CC(C)Cn1c(=O)[nH]c2ncc(-c3cncnc3)nc21 [CBK064177] | 90.1 |
| O=[N+]([O-])c1ccc(CN2CCN(c3nccnc3OCC3COc4ccccc4O3)CC2)cc1 (stereo not drawn) [CBK082791T] | 107 |
| CCOc1ccc(CN2CCN(CCCc3ccccc3)CC2)cc1 [CBK264153G] | 92.7 |
| O=C(Cc1ccccc1)N1CCN(Cc2ccc3ccccc3c2)CC1 [CBK263037] | 112 |
| O=C(c1ccc(F)cc1)N1CCC[C@@H]1Cn1c(=O)oc2ccccc21 [CBK284529] | 89.4 |
| CCn1cc(CN(CC(C)C)C(=O)c2ccccc2C#N)cn1 [CBK306729] | 102 |
| Cc1ccc(CN(Cc2[nH]cnc2C)C2CC(C)(C)NC(C)(C)C2)o1 [CBK283176] | 96.7 |
| C/C(CC(=O)Nc1ccccc1C(N)=O)=N\NC(=O)c1ccoc1C [CBK262957] | 100 |

| SMILES | viability at 28.5 h, 10 µM [%] |
| --- | --- |
| Cc1ccc(S(=O)(=O)N2CC=CCC2)cc1 [CBK058443] | 89 |
| Cc1nc(CCNCc2c(C)nn(C)c2N(C)C)cs1 [CBK304828] | 88.3 |
| CC(=O)c1ccc(NC(=O)O[C@@H]2CO[C@H]3[C@@H]2OC[C@@H]3NC(=O)C2CCC2)cc1 [CBK289475] | 89.3 |
| Fc1ccccc1CN(CCCn1ccnc1)Cc1ccoc1 [CBK283024] | 89.9 |
| COc1cc2c(cc1OC)C(C)N(S(=O)(=O)c1cn(C)cn1)CC2 (stereo not drawn) [CBK057314] | 112 |
| O=[N+]([O-])c1ccc(N2CCN(S(=O)(=O)c3ccc(Cl)cc3)CC2)cc1NCc1cccnc1 [CBK264749] | 123 |
| COCCN1CCCC(NC(C)c2ccc(OC)c(F)c2)C1 (stereo not drawn) [CBK305099] | 80.9 |
| Cc1cnc2[nH]c(C(F)(F)F)c(CN3CCN(C)CC3)c2c1 [CBK284765] | 92.3 |
| N#CCCNCC1COc2ccccc2O1 (stereo not drawn) [CBK026615] | 97.7 |
| Cn1cc(CNCC2CCN(c3ccccc3)C2)c(-c2cccnc2)n1 (stereo not drawn) [CBK304155] | 95.7 |
| O=C(c1nc2ccccc2[nH]1)N1CCC(F)CC1 [CBK200278] | 90.3 |
| CC(C)C(=O)N1CC2(CCN(Cc3cccc(C(F)(F)F)c3)CC2)c2ccccc21 [CBK126716] | 102 |
| Cc1ccn2c(CN3CCCC(Cn4ccnc4C)C3)c(C)nc2c1 (stereo not drawn) [CBK281964] | 86.6 |
| CCN1C(=O)/C(=C/c2cc(Br)ccc2OCc2cccc([N+](=O)[O-])c2)NC1=S [CBK265138] | 93.6 |
| CSc1nc(NC(=O)CCCc2ccccc2)cc(N2CCNCC2)n1 [CBK050258T] | 111 |
| CCCCOc1ccc(-c2nc(SCC(=O)O)c3c4c(sc3n2)COC(C)(C)C4)cc1 [CBK267716] | 99.1 |
| CC1CCCC(C)N1C(=O)Cn1c(=O)n(C)c2ncccc21 (stereo not drawn) [CBK282389] | 107 |
| O=C(O)C1CC=C(Cl)CC1C(=O)Nc1ccc(Cl)cc1[N+](=O)[O-] (stereo not drawn) [CBK265612] | 101 |
| N#Cc1nc(=O)[nH]cc1N [CBK021411] | 90.8 |
| O=C(c1cc(C(F)(F)F)cc(C(F)(F)F)c1)N1CCC(O)(c2ccc(Cl)cc2)CC1 [CBK061972] | 96.9 |
| O=C(Cc1ccc(-c2ccccc2)cc1)NCc1cccnc1 [CBK262591] | 86.4 |
| Cc1ncsc1C(=O)N1CCC[C@H](C(=O)c2cccs2)C1 [CBK284260] | 80.2 |

| SMILES | viability at 28.5 h, 10 µM [%] |
| --- | --- |
| O=C(c1ccc2c(c1)OCO2)N1CCN(C(=O)c2ccc(Cl)cc2F)CC1 [CBK296685] | 99 |
| NC(=O)c1nnc2ccc(Cl)cc2c1N [CBK026161] | 89.9 |
| COc1ccc(-c2cc(C(=O)NCc3cc(Cl)cc(Cl)c3)cnc2-c2ccc(Cl)cc2)cn1 [CBK037431] | 88.8 |
| Cn1ncc2c1CCCC2NC(=O)NCc1ccc(C#N)cc1F (stereo not drawn) [CBK305193] | 85.4 |
| COc1ccc(CCN2C(=O)/C(=C\c3c(NCCO)nc4c(C)cccn4c3=O)SC2=S)cc1 [CBK265566] | 79.9 |
| CC(C)(C)OC(=O)N1CCC(COc2ncc(-c3ccc(C(=O)N4CCC[C@@H]4CO)nc3)cn2)CC1 [CBK170022] | 90.9 |
| CCn1c2cc(C)sc2c2cnn(CC(=O)NC(C)(C)C)c(=O)c21 [CBK284152] | 92.5 |
| COc1cc(NC(=O)c2cc([N+](=O)[O-])ccc2N2CCOCC2)ccc1-c1cc2ccccc2oc1=O [CBK269128] | 84.9 |
| Cc1cc(C[C@@H]2COC[C@H]2NCC(C)c2ccccc2)on1 (stereo partly drawn) [CBK285145] | 88.5 |
| NC(=O)NC(CC(=O)N1CCc2sccc2C1)c1cccc(Br)c1 (stereo not drawn) [CBK305813] | 95 |
| Cc1cnc(C(=O)N[C@H]2C3CCCCC3[C@@H]2c2ccccc2)cn1 (stereo partly drawn) [CBK285125] | 102 |
| COc1ncc(-c2nccnc2NCCc2ccncc2)c(OC)n1 [CBK038074] | 96.7 |
| OC(COc1ccc2c(c1)OCO2)CN1CCN(C(c2ccccc2)c2ccccc2)CC1 (stereo not drawn) [CBK074854C] | 87.5 |
| O=C(COc1ccc(F)cc1)N1CCCC1c1cccc(Cc2ccccc2)n1 (stereo not drawn) [CBK286214] | 105 |
| CCC1CNCCN1c1nccnc1OCCOc1cccnc1 (stereo not drawn) [CBK001559F] | 121 |
| Cc1cc(C(=O)CSc2nnnn2-c2ccc(O)cc2)c(C)n1Cc1ccc(F)cc1 [CBK297081] | 98.8 |
| CC(C)(C)c1ccc(N(C2CCNCC2)S(=O)(=O)c2cccc(C(F)(F)F)c2)cc1 [CBK165056T] | 114 |
| COc1cc(C(=O)N2CCC3(CC2)NC(=O)c2cc(C)ccc2O3)ccc1C [CBK166276] | 108 |
| NS(=O)(=O)c1ccc(NC(=S)NC(=O)/C=C/c2ccco2)cc1 [CBK261066] | 93 |
| Cc1ccc(NC(=O)Cc2cn(C)c3ccccc23)c(C)n1 [CBK200298] | 61.9 |
| O=C1CCC(=O)N1CCn1c(=O)n(C(=O)CCCOc2ccc(Cl)cc2)c2ccccc21 [CBK106496] | 93.4 |
| CC(NC(=O)CCC1CCCC1)c1nc(-c2ccncc2)cs1 (stereo not drawn) [CBK305819] | 86.9 |

| SMILES | viability at 28.5 h, 10 µM [%] |
| --- | --- |
| Nc1nccnc1C(=O)N1CCN(C(=O)Cc2c[nH]c3ccccc23)CC1 [CBK298339] | 88.1 |
| N#CCSc1nnc(NC(=O)Nc2ccccc2)s1 [CBK028792] | 85.3 |
| CCOC(=O)c1cn([C@H](CO)CCSC)cc(Oc2ccccc2)c1=O [CBK307349] | 98.9 |
| Cc1c(C(=O)N2CCC(CN)C2)nnn1-c1ccc2ncccc2c1 (stereo not drawn) [CBK304734] | 101 |
| Cc1cc(C(=O)N2CCCC2c2ccc[nH]2)c2c(C)noc2n1 (stereo not drawn) [CBK305245] | 91.5 |
| CC(=O)CCc1oc2c([N+](=O)[O-])cccc2c1-c1ccc(C)o1 [CBK262476] | 89.4 |
| CCc1nc(CC(=O)NC(C)C(O)c2ccc(F)cc2)cs1 (stereo not drawn) [CBK304003] | 86.7 |
| CC1(C)CC(N(Cc2ccccc2)C(=O)Cc2ccco2)CCO1 (stereo not drawn) [CBK019561] | 95.9 |
| CN(C(=O)c1c[nH]nc1C1CCCN(Cc2ccnc3ccccc23)C1)C1CCCCC1 (stereo not drawn) [CBK286491] | 99.3 |
| O=c1[nH]nc2c(SC3CCCCC3)nccn12 [CBK288471] | 69.4 |
| CCN1CCCC1CNC(=O)c1cc(Br)cnc1N(C)S(C)(=O)=O (stereo not drawn) [CBK076520] | 93.5 |
| CN(C)CC(=O)N1CCN(c2cncc(-c3ccc(O)cc3)n2)CC1 [CBK126921T] | 97.2 |
| Cc1ccc(-n2c(SCC(=O)Nc3sc4c(c3C#N)CCCC4)nnc2-c2ccccc2O)c(C)c1 [CBK268692] | 77.9 |
| CCC(Cc1c[nH]c2ccccc12)NC(=N)N (stereo not drawn) [CBK010430] | 102 |
| CCn1cc(-c2cncn2CCCN2CCCCC2)cn1 [CBK281767] | 82.9 |
| O=C(Nc1ccc(S(=O)(=O)Nc2ccc(Cl)cc2)cc1)c1ccc(Cn2cc(Br)cn2)o1 [CBK265764] | 108 |
| Cc1cccc(/C=C2/SC(=S)N(CC(=O)O)C2=O)n1 [CBK265146] | 82.9 |
| O=C(CC1(O)C(=O)N(Cc2ccccc2Cl)c2ccccc21)c1cc2ccccc2oc1=O (stereo not drawn) [CBK265255] | 96.2 |
| C[C@H]1CN(C(=O)c2cc(C3CC3)no2)[C@@H](C)CN1Cc1ccco1 [CBK281736] | 106 |
| CC(C)(C)c1ccc(-c2cnc(N)c3ncccc23)cc1 [CBK067589] | 99.2 |
| COc1ccc(C(=O)CSc2nnc(C(O)c3ccccc3)n2-c2ccccc2)cc1 (stereo not drawn) [CBK265104] | 109 |
